In the supplement of paper PMC6045584:
± gives the standard deviation of the averaged measurements.

Columns and labels:
[1] = compound: COc1ccc(-c2cc3c(C)nc(N)nc3n([C@H]3CC[C@H](OCCO)CC3)c2=O)cn1; assay: surviving fraction relative to DMSO-only wells; higher = less growth inhibition; settings: exposure time: 5 days
Outline: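 In 384-well plates, 250–500 log-phase tumour cells per well were given 24 hours before five days of continuous exposure to inhibitors at 0.5, 1, 5, 10, 50, 100, 500 and 1000 nM. Surviving fraction is luminescence from CellTiter-Glo, normalised to the median of wells containing DMSO alone. Reading took place after 10 minutes at room temperature.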

[2] = compound: C=CCn1c(=O)c2cnc(Nc3ccc(N4CCN(C)CC4)cc3)nc2n1-c1cccc(C(C)(C)O)n1 [MK-1775]; assay: area under dose-response curve of surviving fraction (unscaled, Aref=0) (surviving fraction x log10(nM)); higher = more resistant; settings: exposure time: 5 days; dose range 0.5-1000 nM
Outline: (§1)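 Surviving fractions were fitted by 3-parameter logistic regression in the drc R package to give dose-response survival curves. They came from tumour cell lines treated for five days with eight inhibitor concentrations from 0.5 to 1000 nM and read by CellTiter-Glo luminescence against DMSO-only wells. The area under the curve is the unscaled activity area. It was calculated over log10 dose with Aref = 0.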

[3] = compound: Cn1c(=O)n(-c2ccc(C(C)(C)C#N)cc2)c2c3cc(-c4cnc5ccccc5c4)ccc3ncc21 [BEZ-235]; assay: as above; settings: exposure time: 5 days; dose range 0.5-1000 nM
Outline: as §1

[4] = compound: Cc1c(N)nc([C@H](CC(N)=O)NC[C@H](N)C(N)=O)nc1C(=O)N[C@H](C(=O)N[C@H](C)[C@@H](O)[C@H](C)C(=O)N[C@H](C(=O)NCCc1nc(-c2nc(C(=O)NCCC[S+](C)C)cs2)cs1)[C@@H](C)O)[C@@H](OC1OC(CO)C(O)C(O)C1OC1OC(CO)C(O)C(OC(N)=O)C1O)c1cnc[nH]1 [BLEOMYCIN]; assay: as above; settings: exposure time: 5 days; dose range 0.5-1000 nM
Outline: as §1

[5] = compound: COc1cc2nccc(Oc3ccc(NC(=O)NC4CC4)c(Cl)c3)c2cc1C(N)=O [LENVATINIB]; assay: as above; settings: exposure time: 5 days; dose range 0.5-1000 nM
Outline: as §1

[6] = compound: COc1ccc(-c2cc3c(C)nc(N)nc3n([C@H]3CC[C@H](OCCO)CC3)c2=O)cn1; assay: as above; settings: exposure time: 5 days; dose range 0.5-1000 nM
Outline: as §1

[7] = compound: CCc1cc(Nc2nccc(-c3c(-c4ccc(OC)c(C(=O)Nc5c(F)cccc5F)c4)nc4ccccn34)n2)c(OC)cc1N1CCC(N2CCN(S(C)(=O)=O)CC2)CC1; assay: as above; settings: exposure time: 5 days; dose range 0.5-1000 nM
Outline: as §1

[8] = compound: C[C@@H]1CN(CC(=O)Nc2ccc3c(c2)Cc2cccc(-c4cc(=O)cc(N5CCOCC5)o4)c2S3)C[C@H](C)O1; assay: as above; settings: exposure time: 5 days; dose range 0.5-1000 nM
Outline: as §1

[9] = compound: O=C(CCCCCCC(=O)Nc1ccccc1)NO [VORINOSTAT]; assay: as above; settings: exposure time: 5 days; dose range 0.5-1000 nM
Outline: as §1

Row | Test System | surviving fraction ([1]; 0.5 nM) | surviving fraction ([1]; 1 nM) | surviving fraction ([1]; 5 nM) | surviving fraction ([1]; 10 nM) | surviving fraction ([1]; 50 nM) | surviving fraction ([1]; 100 nM) | surviving fraction ([1]; 500 nM) | surviving fraction ([1]; 1000 nM) | area under dose-response curve [2] | area under dose-response curve [3] | area under dose-response curve [4] | area under dose-response curve [5] | area under dose-response curve [6] | area under dose-response curve [7] | area under dose-response curve [8] | area under dose-response curve [9]
1 | HMLE3 BREAST | 0.914 ± 0.04 | 0.918 ± 0.061 | 0.858 ± 0.12 | 0.83 ± 0.035 | 0.611 ± 0.043 | 0.446 ± 0.024 | 0.121 ± 0.01 | 0.0777 ± 0.0064 | 2.87 | 2.13 | 3 | 3.05 | 2.08 | 3.22 | 3.21 | 
2 | HMT3552 BREAST | 0.941 | 0.913 | 0.883 | 0.813 | 0.535 | 0.279 | 0.09 | 0.077 |  |  |  |  |  |  |  | 
3 | HS578T BREAST | 0.864 ± 0.19 | 0.946 ± 0.1 | 0.811 ± 0.047 | 0.759 ± 0.12 | 0.547 ± 0.048 | 0.403 ± 0.028 | 0.17 ± 0.008 | 0.111 ± 0.004 | 1.96 | 2.13 | 2.21 |  | 1.97 | 2.93 | 2.86 | 2.86
